# Experimental data taken from article PMC4884932, “Selective brain penetrable Nurr1 transactivator for treating Parkinson's disease” (Oncotarget, 2016).
# Key:
# [1] = test system: tyrosine hydroxylase (TH)-positive DA neurons; test: DA neuron survival in primary ventral midbrain (VMB) culture; assay type: cell-based, mouse; settings: primary VMB neurons, dose-dependent
# Procedure: Ventral midbrain (VMB) from E13.5-14.5 C57BL/6 mouse embryos were dissected, triturated and plated on poly-D-lysine coated 12 well plates or glass coverslips with the serum-free chemically-defined Neurobasal medium, supplemented with 2% B27, 0.5mM L-glutamine, 50I.U./ml penicillin and 50μg/ml streptomycin (Gibco-BRL). […] For each time point, cells were washed once with phosphate buffered saline and fixed with 4% paraformaldehyde for TH immunofluorescent staining. For cell counting, 10 frames were randomly captured from each well using a Leica fluorescent microscope and a minimum of four replicates for each dose and each time point were analyzed for each experiment.
# [2] = test system: Nurr1 downstream genes in the SN; test: Expression of Nurr1 downstream genes in the substantia nigra after oral treatment; assay type: in vivo; settings: rat, 7 days oral 10 mg/kg/day
# Procedure: (§1) Male SD rats underwent daily gavage with 10mg/kg/day for seven days. One hour after the last dose, rats were anesthetized with ketamine/xylazine and transcardially perfused with cold saline. Brains were isolated and homogenized with two volumes of phosphate buffer using ultrasonication. A 100μl sample of the homogenate was transferred to a 1.7ml centrifuge tube and mixed with 20μl of internal standard (100ng/ml of 13-cis retinoic acid-d5 in diluent). Then the sample was deproteinized with 300μl of acetonitrile, centrifuged, and the supernatant was transferred to an autosampler vial for analysis by LC/MS/MS. The calibration standards and the internal standard (13-cis retinoic acid-d5) were diluted in acetonitrile:butylatedhydroxyanisole:ethoxyquin:triethylamine (100:0.05:0.02:0.1, v/w/v/v).
# Total RNA from VMB neurons or rat substantia nigra were isolated using the RNeasy Mini Kit from Qiagen (Valencia, CA) and 1μg of total RNA was reverse transcribed using SuperScript III first-strand synthesis supermix for qRT-PCR from Invitrogen (Carlsbad, CA) according to the manufacturer's instruction. Quantitative RT-PCR was performed using Maxima SYBR Green master mix (Fermentas) in ABI Prism 7900HT in four replicates with primers amplifying the target genes. Expression level of actin was used as an internal control. Data were normalized using the 2^−ΔΔCt method. Levels of target gene mRNAs were expressed relative to those in vehicle control groups and plotted in GraphPad Prism.
# [3] = IRX4204 content in the brain by LC/MS/MS; assay type: in vivo; settings: male, SD, oral, rat, 7 days repeated dosing 10 mg/kg/day gavage, one hour after the last dose
# Procedure: as §1
# The LC/MS system was comprised of Waters Acquity Ultra Performance Liquid Chromatography (UPLC) coupled to a XEVO-TQS (Waters). The samples were analyzed by reverse-phase HPLC using a Waters Atlantis T3 column (150 × 2.1mm, 5um). The mobile phase was nebulized using heated nitrogen in a Z-spray source/interface set to electrospray negative ionization mode. The ionized compounds were detected using MS/MS. […] The detection was linear between 2.5nM to 10nM.
# Nurr1 = target: T1, Nurr1 (Homo sapiens, UniProt P43354); test: Nurr1 transactivation assay in COS7 cells without RXRα; assay type: cell-based; settings: Nurr1 in the absence of RXRα
# T1 construct: full length Nurr1 with or without full-length RXRα plasmid; expressed in transfected cells; host or cells: COS7
# Text: For RXR: CV-1 cells were transfected with rCRBPII/RXRE-tk-Luc reporter gene and an expression vector for RXRα, β, or γ. For RAR: CV-1 cells were transfected with ERE-tk-Luc reporter gene and an expression vector for the appropriate ER-RARα, β, or γ. ER-RARs are fusion proteins, composed of the estrogen receptor (ER) DNA binding domain fused to the ligand binding domain of RARs. This system eliminates interference by the low level of endogenous RAR activity in CV1 cells as the readout comes only from the transfected ER-RAR. For PPARγ: CV-1 cells were transfected with 3x(rAOX/DR1)-tk-Luc reporter gene and an expression vector for PPARγ; for FXR: CV-1 cells were transfected with 3x(IBABP/IR1)-tk-Luc reporter gene and vectors for FXR and RXRα; for LXR: CV-1 cells were transfected with 3x(PLTP/LXRE)-tk-Luc reporter gene with vectors for LXRα or LXRβ. For Nurr1: COS7 cells were transfected with 3xNBRE-tk-luc reporter gene and full length Nurr1 with or without full-length RXRα plasmid. […] Luciferase data were normalized to co-transfected β-gal activity. Luciferase activity is expressed as percent of maximal activity obtained using specific agonists 9-cis-retinoic acid (RXR), retinoic acid (RAR), rosiglitazone (PPARγ), GW4064 (FXR), T0901317 (LXR).
# 6-OHDA lesioned rats [4] = test: DAT and TH content in the striatum by Western blot, 6-OHDA lesioned rats; assay type: in vivo, rat; settings: 10mg/kg/day gavage for three weeks
# Procedure: (§2) All surgical procedures were performed under general anesthesia with ketamine/xylazine. 2μl 6-OHDA (20 mg/ml in 0.02% ascorbic acid) was stereotaxically injected into the right striatum of male SD rats. Lesion coordinates were set according to bregma and dura in mm: ML-3.7; AP-1.0; DV-5.5. The injection rate was 2μl/5 min and the injecting needle was left for 2 minutes after injection to avoid back flow. Apomorphine-induced rotations (see below) were assessed three days post-lesion and rats with ≥ 30 full contralateral rotation/30 minutes were included in the study.
# (§3) Rats were randomly grouped into vehicle control group (n = 11) and drug treatment group (n = 10). […] The control group received DMSO/corn oil (vehicle). The treatment continued for three weeks.
# Striatum samples were homogenized and boiled in SDS-PAGE sample buffer and separated onto 10% Tris-glycine gels. Western blotting was performed using anti-TH or anti-DAT (Millipore, Billerica, MA), as primary antibodies and enhanced chemiluminescence signals were quantified and normalized with β-actin.
# [5] = Plasma protein binding by equilibrium dialysis, rat plasma; assay type: in vitro ADME; settings: K3EDTA control plasma, 37°C, read-out: plasma protein binding, bound (converted)
# Procedure: SD male rats were grouped into four groups: vehicle, 1mg/kg/day, 3mg/kg/day and 10mg/kg/day. Rats were treated with the designated dose by daily gavage. Acute plasma PK was conducted on day one and acute-on-chronic plasma PK was conducted on day 24. Pharmacokinetic assessment was conducted by collecting of blood at baseline (prior gavage), 0.25, 0.5, 1, 2, 4, 8, 12 and 24h post gavage. […] The spiked plasma was dialyzed at 37°C against an isotonic sodium phosphate buffer to achieve equilibrium. At the end of dialysis, the plasma and buffer level of IRX4204 were quantified by LC/MS/MS.
# 6-OHDA lesioned rats [6] = test: Apomorphine-induced rotations in 6-OHDA lesioned rat model of PD; assay type: in vivo; settings: 10mg/kg/day gavage for three weeks, day 24 post-lesion
# Procedure: as §2, §3
# Apomorphine (APO)-induced rotations were performed as described by Fisher et al.. Briefly, immediately after apomorphine injection (0.5 mg/kg body weight), animals were placed in an open area. A camera monitored the animal behavior and computerized software analyzed the number of contralateral and ipsilateral rotations in 30 minutes testing. Rotations were assessed three days post-lesion and after three weeks of treatment (24 days post-lesion). Data were expressed as average contralateral turns per minute.
# T1 sequence (P43354 whole entry, species assumed): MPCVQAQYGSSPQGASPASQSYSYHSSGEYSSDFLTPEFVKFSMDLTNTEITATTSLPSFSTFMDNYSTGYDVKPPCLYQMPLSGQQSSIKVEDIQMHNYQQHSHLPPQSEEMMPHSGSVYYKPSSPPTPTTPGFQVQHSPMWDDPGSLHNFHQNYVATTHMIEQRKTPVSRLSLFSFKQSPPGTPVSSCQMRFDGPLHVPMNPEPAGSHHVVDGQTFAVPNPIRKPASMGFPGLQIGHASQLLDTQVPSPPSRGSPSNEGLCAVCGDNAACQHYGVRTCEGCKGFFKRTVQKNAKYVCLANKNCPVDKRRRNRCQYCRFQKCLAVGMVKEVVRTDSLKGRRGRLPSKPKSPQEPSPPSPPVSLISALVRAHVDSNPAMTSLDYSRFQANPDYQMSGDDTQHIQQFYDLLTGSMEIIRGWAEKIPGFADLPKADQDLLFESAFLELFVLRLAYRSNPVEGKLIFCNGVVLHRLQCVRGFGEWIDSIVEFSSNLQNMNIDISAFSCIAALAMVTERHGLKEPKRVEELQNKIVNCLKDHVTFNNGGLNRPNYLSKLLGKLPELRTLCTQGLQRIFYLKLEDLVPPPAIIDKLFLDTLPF
compound,measurement,setting,value
CC(/C=C/[C@@H]1C[C@]1(C)c1ccc2c(c1)C(C)(C)CCC2(C)C)=C\C(=O)O [IRX4204],survival of TH-positive DA neurons,[1],increased survival
same,DAT mRNA level in the SN,[2],significantly increased
same,DDC mRNA level in the SN,[2],significantly increased
same,DJ-1(PARK7) mRNA level in the SN,[2],significantly increased
same,GRFα1 mRNA level in the SN,[2],significantly increased
same,Pitx3 mRNA level in the SN,[2],significantly increased
same,TH mRNA level in the SN,[2],significantly increased
same,VMAT-2 (VMAT2) mRNA expression in the SN,[2]; did not reach statistical significance,trend towards an increase
same,concentration at 1 h,[3],11.5 ± 2.9 nM
same,reporter gene activation,Nurr1,base level of reporter gene activation
same,DAT content in the lesioned striatum versus non-lesioned side,6-OHDA lesioned rats [4],almost identical to those in the non-lesioned side
same,TH content in the lesioned striatum versus non-lesioned side,6-OHDA lesioned rats [4],almost identical to those in the non-lesioned side
same,fraction unbound at 1 ug/ml,[5],0.0249
same,APO-induced contralateral rotations versus baseline,6-OHDA lesioned rats [6],did not differ significantly from baseline
